According to US4755526A, “Method of inhibiting aromatase” (Eli Lilly and Company, priority 1984, dated 1988):
pEC50: −log10 of the molar value.

Experiments:
[1] = tested on: DMBA-induced mammary tumors; test: DMBA-induced mammary tumor inhibition; type: in vivo, female Sprague-Dawley rats
Experimental: Mammary tumors were produced in female Sprague-Dawley rats which were 50-60 days old by the gavage administration of 20 mg of 7,12-dimethylbenz[a]anthracene (DMBA). About six weeks after DMBA administration, the mammary glands were palpated at weekly intervals for the appearance of tumors. Whenever one or more tumors appeared and were measurable in an animal, that animal was selected for experimentation. […] Each control and test group contained 8 animals. The test compound was administered either mixed into the food at a concentration of 300 ppm (corresponding to an appropriate daily dose of 30 mg/kg) or the compounds were dissolved or suspended in corn oil and administered once daily by gavage. Every experiment included a group of control rats having tumors and were either given food without the compound admixed or corn oil vehicle by gavage, depending on how the test compound was administered. […] The area of each tumor was calculated by multiplying the shortest and longest diameters of the tumor. The treatment and measurement of animals continued for 4-8 weeks at which time the final areas of the tumors were determined. For each compound (and control) at each dose level, the change in the mean tumor area was determined. The mean change was analyzed for its significance using Dunnett's t-test.

estrogen synthesis = test: Estrogen synthesis inhibition in rats (uterine weight and ovarian steroid concentrations); type: in vivo, female Wistar rats; conditions: for Mean Steroid Concentration, estradiol / Mean Steroid Concentration, estriol / Mean Steroid Concentration, estrone: ovaries; for Mean Uterine Weight: testosterone propionate-treated rats
Experimental: Test compounds were administered for seven days either daily by gavage in corn oil or as a component of the diet. Control animals received either corn oil or diet without the test compound. Beginning on the fourth day of the test, all animals treated with the test compound and one half of the control animals were given a subcutaneous injection of 1.0 mg of testosterone propionate in corn oil. The remaining control animals received only an equivalent volume of corn oil.
After two hours, the animals were killed by decapitation. Uteri were isolated, trimmed of extraneous connective tissue, and weighed. […] In the control animals treated with testosterone propionate, estrogens produced by aromatization stimulated the uterus resulting in an increase in weight.
The ovarian steroids were extracted with 1.5 ml of 9:1 (v/v) toluene/ethanol to which had been added 25 to 100 mcg each of unlabelled estradiol, estriol, and estrone, and approximately 1000 dpm of [^14 C]-estradiol. The samples were vortexed, centrifuged at 500×g for 10 minutes, and the organic phase was transferred to a conical vial. Two additional extractions were performed on the residue in the same way. The pooled organic extracts were evaporated for subsequent thin-layer chromatography.
Ovarian proteins were precipitated by the addition of 5.0 ml of ethanol to the remaining aqueous phase. After an overnight incubation at 4° C., the samples were centrifuged at 1500×g for 10 minutes. The supernatant was discarded, and the pellet was dissolved in 0.3N potassium hydroxide.
The organic residue from each above extraction was redissolved in 9:1 (v/v) dichloromethane/methanol. The solution of each sample was applied to separate silica gel thin layer chromatography plates which contained a fluorescent indicator. The plates were developed in the first dimension with 160:38:1.5:0.5 (v/v/v/v) dichloromethane/ethyl acetate/methanol/acetic acid to within 3 cm of the top of the plate. After air-drying, the plate was developed in the second dimension with 180:19:1 (v/v/v) dichloromethane/methanol/ammonium hydroxide. The plate was air-dried and viewed under 254 nm UV light.
The visible spots were marked and the plates were sprayed with primulin (0.001% in 4:1 v/v acetone/water) according to the method of Wright, J. Chromatography, 59, 220 (1971) which allowed for the identification of additional steroids under 365 nm UV light. The spots were scraped from the plate using a glass wool plugged Pasteur pipet attached to a vacuum line. The steroids were eluted directly into scintillation vials by the addition of 0.2 ml of dichloromethane followed by two washes each of 2.0 ml of methanol. The organic solvent was evaporated and 10.0 ml of scintillation fluid (Beckman Ready Solv-NA) was added to the vials. Samples were analyzed by liquid scintillation spectrometry. Corrections were made based on the recoveries of the [^14 C]-steroid. Steroid concentrations are expressed as femtomoles per milligram protein.

breast cancer = conditions: Cancer Research, Vol. 42, Suppl. 8: 3261s (1982); cited from earlier work
aromatase = molecular target: T1, aromatase (Rattus norvegicus, UniProt P22443); test: Aromatase inhibition in the rat ovarian microsome assay; type: biochemical; conditions: EC50: concentration required to achieve 50% inhibition of aromatase activity, substrate (androstenedione) concentration 0.1 μM
T1 construct: ovarian microsomes are obtained from rats treated with pregnant mares serum gonadotropin; from tissue; host or cells: ovarian microsomes of rats treated with pregnant mares serum gonadotropin
T1 sequence (P22443 1-508): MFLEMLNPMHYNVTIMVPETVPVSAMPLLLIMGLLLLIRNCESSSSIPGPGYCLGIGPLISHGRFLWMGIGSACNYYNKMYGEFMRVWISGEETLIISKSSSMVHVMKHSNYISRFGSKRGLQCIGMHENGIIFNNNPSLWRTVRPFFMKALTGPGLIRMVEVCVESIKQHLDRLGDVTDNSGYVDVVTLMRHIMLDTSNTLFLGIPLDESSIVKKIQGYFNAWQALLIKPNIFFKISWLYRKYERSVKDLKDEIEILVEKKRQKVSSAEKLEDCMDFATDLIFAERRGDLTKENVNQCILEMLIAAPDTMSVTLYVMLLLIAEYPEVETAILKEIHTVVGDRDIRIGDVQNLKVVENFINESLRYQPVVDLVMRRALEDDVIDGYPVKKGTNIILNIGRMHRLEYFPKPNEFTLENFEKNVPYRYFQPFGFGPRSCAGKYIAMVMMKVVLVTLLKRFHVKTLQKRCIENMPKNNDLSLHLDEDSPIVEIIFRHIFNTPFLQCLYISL
Experimental: In this test system, ovarian microsomes are obtained from rats treated with pregnant mares serum gonadotropin. Test compounds are added to reaction vials containing 0.1 μM 4-androstene-3,17-dione, 100,000 dpm 1,2[^3 H]-androstenedione, the microsomes and a NADPH generating system. The concentrations of the inhibitors tested ranged between 0.005 and 10 μM.

[2] = 300 ppm in diet, 4 weeks, control 62.8 to 1087.3 (Test II), 1087.0 (Test III)
[3] = 30 ppm in feed (approximately 3 mg/kg/day)
[4] = 300 ppm in feed (approximately 30 mg/kg/day)

Compound | Mean Tumor Area, Start ([1]; 300 ppm in diet, 4 weeks test) [mm^2] | Mean Tumor Area, Finish [1, 2] [mm^2] | Mean Steroid Concentration, estradiol (estrogen synthesis; [3]) | Mean Steroid Concentration, estriol (estrogen synthesis; [3]) | Mean Steroid Concentration, estrone (estrogen synthesis; [3]) | Mean Uterine Weight (estrogen synthesis; [3]) [mg] | Mean Steroid Concentration, estradiol (estrogen synthesis; [4]) | Mean Steroid Concentration, estriol (estrogen synthesis; [4]) | Mean Steroid Concentration, estrone (estrogen synthesis; [4]) | Mean Uterine Weight (estrogen synthesis; [4]) [mg] | effect in treatment of breast cancer (breast cancer) | Mean Tumor Area, Start ([1]; 5 mg/kg daily by gavage, 4 weeks test) [mm^2] | Mean Tumor Area, Finish ([1]; 5 mg/kg daily by gavage, 4 weeks, control 54.8 to 914.0) [mm^2] | Mean Tumor Area, Start ([1]; 30 mg/kg daily by gavage, 4 weeks test) [mm^2] | Mean Tumor Area, Finish ([1]; 30 mg/kg daily by gavage, 4 weeks, control 54.8 to 914.0) [mm^2] | Mean Tumor Area, Start ([1]; 300 ppm in diet, 6 weeks test) [mm^2] | Mean Tumor Area, Finish ([1]; 300 ppm in diet, 6 weeks, control 49.6 to 752.1) [mm^2] | pEC50 (aromatase) | Mean Tumor Area, Start ([1]; 300 ppm in diet, 5 weeks test) [mm^2] | Mean Tumor Area, Finish ([1]; 300 ppm in diet, 5 weeks, control 48.4 to 818.0) [mm^2]
O=[N+]([O-])c1ccc(C(c2ccc([N+](=O)[O-])cc2)n2ccnc2)cc1 [1-[bis(4-nitrophenyl)methyl]imidazole] | 64.5 | 18.9 | 0.92 femtomoles per milligram of protein | 1.65 femtomoles per milligram of protein | 1.58 femtomoles per milligram of protein | 105.0 | 0.28 femtomoles per milligram of protein | 0.83 femtomoles per milligram of protein | 0.94 femtomoles per milligram of protein | 110.8 |  |  |  |  |  |  |  |  |  | 
CCC1(c2ccc(N)cc2)CCC(=O)NC1=O (stereo not shown) [aminoglutethimide] |  |  |  |  |  |  |  |  |  |  | beneficial effect in treatment of breast cancer |  |  |  |  |  |  |  |  | 
C[C@]12C=CC(=O)C=C1CC[C@@H]1[C@@H]2CC[C@]2(C)OC(=O)CC[C@@H]12 [testolactone] |  |  |  |  |  |  |  |  |  |  | beneficial effect in treatment of breast cancer |  |  |  |  |  |  |  |  | 
Clc1ccc(C(c2ccc(Cl)cc2)(c2cccnc2)n2ccnc2)cc1 [3-[4,4'-dichloro-α-(1-imidazolyl)diphenylmethyl]pyridine] | 53.8 | 154.0 | 1.25 femtomoles per milligram of protein | 0.27 femtomoles per milligram of protein | 0.11 femtomoles per milligram of protein | 118.0 | 0.75 femtomoles per milligram of protein | 0.28 femtomoles per milligram of protein | 0.24 femtomoles per milligram of protein | 96.8 |  |  |  |  |  |  |  |  |  | 
Clc1ccc(C(c2ccc(Cl)cc2)n2ccnc2)cc1 [1-[bis(4-chlorophenyl)methyl]imidazole] |  |  |  |  | 0.09 femtomoles per milligram of protein | 85.3 |  |  |  | 66.0 |  | 44.8 | 346.0 | 62.4 | 276.0 | 57.4 | 40.8 |  |  | 
c1ccc(C(c2ccccc2)(c2ccncc2)n2ccnc2)cc1 [4-(1H--imidazol-1-yl-diphenylmethyl)pyridine] |  |  | 0.78 femtomoles per milligram of protein | 0.35 femtomoles per milligram of protein | 0.25 femtomoles per milligram of protein | 156.0 | 0.61 femtomoles per milligram of protein | 0.29 femtomoles per milligram of protein | 0.23 femtomoles per milligram of protein | 110.8 |  |  |  |  |  |  |  | 7.92 |  | 
Clc1ccc(COc2ccccc2Cn2ccnc2)c(Cl)c1 [1-[(2-[2,4-dichlorobenzyloxy]phenyl)methyl]-1H--imidazole nitrate] |  |  | 1.16 femtomoles per milligram of protein | 0.33 femtomoles per milligram of protein | 0.31 femtomoles per milligram of protein | 173.5 | 1.97 femtomoles per milligram of protein | 0.34 femtomoles per milligram of protein | 0.30 femtomoles per milligram of protein | 151.4 |  |  |  |  |  |  |  | 7.17 |  | 
Clc1ccc(C(c2ccccc2)n2ccnc2)cc1 (stereo not shown) [1-[(4-chlorophenyl)phenylmethyl]-1H--imidazole] |  |  | 0.92 femtomoles per milligram of protein | 0.75 femtomoles per milligram of protein |  | 114.8 | 0.00 femtomoles per milligram of protein | 0.35 femtomoles per milligram of protein | 0.11 femtomoles per milligram of protein | 68.4 |  |  |  |  |  |  |  |  | 49.3 | 467.0
